Consider 8 compounds from ChEMBL document CHEMBL1201862, “PubChem BioAssay data set” (2004).

The target of assay [1] is T1, Probable nicotinate-nucleotide adenylyltransferase (Staphylococcus aureus (strain N315), UniProt P65502). It counts as functional, Staphylococcus aureus subsp. aureus N315. To be noted: read-out: IC50_Mean.
Assay [2] has as its target T1, Probable nicotinate-nucleotide adenylyltransferase. Format: functional, Staphylococcus aureus subsp. aureus N315.
A short description of assay [3]: cells. Format: functional, cell-based.
The subject of assay [4] is INS1. Kind of assay: INS-1E survival protection against cytokine death – cell-based, luminescence, retest, dose response (AID 449756).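 Further: cell death triggered by IL-1 beta plus TNF-alpha plus IFN-gamma mixture; protective hits raise ATP signal compared with cytokine alone wells.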 Format: functional. The following applies: Rattus norvegicus.
In assay [5] the target is T2, Microphthalmia-associated transcription factor (Homo sapiens, UniProt O75030).
T2 sequence (O75030 whole entry): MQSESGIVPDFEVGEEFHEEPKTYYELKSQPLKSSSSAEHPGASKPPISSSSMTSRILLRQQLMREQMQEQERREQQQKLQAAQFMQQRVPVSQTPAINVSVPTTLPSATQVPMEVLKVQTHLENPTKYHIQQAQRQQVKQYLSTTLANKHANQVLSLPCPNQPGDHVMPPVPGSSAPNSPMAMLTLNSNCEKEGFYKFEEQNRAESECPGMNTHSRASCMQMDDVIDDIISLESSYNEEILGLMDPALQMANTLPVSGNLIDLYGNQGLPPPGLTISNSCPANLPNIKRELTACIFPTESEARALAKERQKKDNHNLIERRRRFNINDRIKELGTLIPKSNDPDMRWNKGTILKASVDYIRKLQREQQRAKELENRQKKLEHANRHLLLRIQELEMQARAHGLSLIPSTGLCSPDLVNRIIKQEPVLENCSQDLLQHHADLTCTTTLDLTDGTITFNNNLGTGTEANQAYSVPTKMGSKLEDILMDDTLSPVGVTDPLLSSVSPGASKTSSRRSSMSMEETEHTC
Kind of assay: reducers of TRPM1 reporter luminescence, concentration series – cell-based, SK-MEL-5, cherry-picked, set 3, MITF inhibitor project, dose response (AID 493073).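 Further: SK-MEL-5 melanoma cells with luciferase driven by the MITF target TRPM1 promoter.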 It counts as functional.

A short description of assay [6]: Counterscreen for activators of the function of SWI/SNF related, matrix associated, actin dependent regulator of chromatin, subfamily a, member 2 (SMARCA2, BRM): Luminescence-based cell-based high throughput dose response assay to identify non-selective compounds using the VP16 reporter assay. It counts as functional. For orientation: The purpose of a counterscreen is to sort out artefacts and off-target activity.

A short description of assay [7]: cells. It counts as functional, cell-based. The source holds these as a separate data set.
Assay [8] can be described thus: Luminescence-based cell-based high throughput dose response assay to identify activators of the DAF-12 from the parasite S. stercoralis (ssDAF-12). Format: functional.
Assay [9] addresses T3, Heat shock factor protein 1 (Mus musculus, UniProt P38532).
T3 sequence (P38532 whole entry): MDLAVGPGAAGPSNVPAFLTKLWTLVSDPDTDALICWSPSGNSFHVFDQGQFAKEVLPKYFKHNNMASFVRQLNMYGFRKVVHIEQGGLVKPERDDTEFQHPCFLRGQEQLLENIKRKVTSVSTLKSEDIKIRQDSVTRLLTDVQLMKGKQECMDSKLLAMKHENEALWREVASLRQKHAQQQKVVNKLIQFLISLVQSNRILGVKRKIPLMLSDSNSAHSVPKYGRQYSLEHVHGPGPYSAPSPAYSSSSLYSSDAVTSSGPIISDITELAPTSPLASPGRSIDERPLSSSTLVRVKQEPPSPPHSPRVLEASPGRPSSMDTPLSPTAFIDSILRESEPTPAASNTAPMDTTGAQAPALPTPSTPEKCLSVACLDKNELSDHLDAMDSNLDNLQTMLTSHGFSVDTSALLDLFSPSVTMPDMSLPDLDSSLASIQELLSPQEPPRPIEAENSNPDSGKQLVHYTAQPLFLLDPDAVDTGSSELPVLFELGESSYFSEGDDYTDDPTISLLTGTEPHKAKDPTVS
Kind of assay: enhancement of HSF1-driven luciferase signal – cell-based, NIH3T3, luminescence, dose retest, confirmation (AID 435004).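 Further: stress induced by proteasome inhibitor MG132 added 30 min after compound; luciferase reporter driven by HSF1 response element in NIH3T3 cells; actives raise luminescence as potentiators of the MG132 stress response.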 Format: functional.

A short description of assay [10]: Trypanosoma cruzi growth suppression in host cells – NIH3T3 host cells, beta-gal luminescence, confirmation (AID 2044).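 Further: intracellular parasites grown in NIH/3T3 mouse fibroblasts as host cells; luminescent beta-galactosidase reporter signal from transgenic T. cruzi replicating inside host cells; inhibitors lower the luminescence signal.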 It counts as functional, cell-based.
Assay [11] concerns the target SWI/SNF-related matrix-associated actin-dependent regulator of chromatin subfamily A member 2 (Homo sapiens, UniProt P51531). The assay can be described thus: Luminescence-based cell-based high throughput dose response assay to identify activators of the function of SWI/SNF related, matrix associated, actin dependent regulator of chromatin, subfamily a, member 2 (SMARCA2, BRM). It counts as functional.

Assay [12] is described as follows: viability of uninfected HEp-2 cells – cell-based, HTS, cytotoxicity control for RSV inhibitor project, dose response (AID 2410). The following applies: human respiratory syncytial virus. It counts as functional.
Assay [13] in a line: Counterscreen for inhibitors of Trypanosoma brucei methionyl tRNA synthetase (MetRS): Luminescence-based cell-based high throughput dose response assay to identify compounds that are cytotoxic to Jurkat human T lymphocyte cells. It counts as functional.
In assay [14] the target is T4, Methionyl-tRNA synthetase, putative (Trypanosoma brucei brucei, UniProt Q38C91).
T4 sequence (Q38C91 whole entry): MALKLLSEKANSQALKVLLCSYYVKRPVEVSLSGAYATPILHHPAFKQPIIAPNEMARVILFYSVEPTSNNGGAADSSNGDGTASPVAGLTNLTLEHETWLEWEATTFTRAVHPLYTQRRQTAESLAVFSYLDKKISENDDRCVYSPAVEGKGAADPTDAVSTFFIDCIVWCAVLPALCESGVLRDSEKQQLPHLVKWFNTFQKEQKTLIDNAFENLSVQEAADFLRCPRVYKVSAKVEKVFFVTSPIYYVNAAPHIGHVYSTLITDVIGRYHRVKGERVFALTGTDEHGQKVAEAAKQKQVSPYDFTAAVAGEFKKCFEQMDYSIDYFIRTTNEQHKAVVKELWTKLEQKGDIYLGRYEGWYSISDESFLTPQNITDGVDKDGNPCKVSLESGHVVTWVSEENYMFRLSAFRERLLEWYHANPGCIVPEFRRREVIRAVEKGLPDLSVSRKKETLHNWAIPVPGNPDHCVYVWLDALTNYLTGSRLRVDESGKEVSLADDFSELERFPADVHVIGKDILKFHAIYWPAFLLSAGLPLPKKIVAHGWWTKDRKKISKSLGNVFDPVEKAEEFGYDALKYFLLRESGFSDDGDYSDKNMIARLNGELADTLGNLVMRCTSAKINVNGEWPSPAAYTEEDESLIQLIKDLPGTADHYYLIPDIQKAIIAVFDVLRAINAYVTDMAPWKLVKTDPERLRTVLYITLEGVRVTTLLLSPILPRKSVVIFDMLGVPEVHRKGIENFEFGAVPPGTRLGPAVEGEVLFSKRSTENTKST
Format: functional, Trypanosoma brucei brucei strain 927/4 GUTat10.1.

Assay [15] has as its target T4, Methionyl-tRNA synthetase, putative. It counts as functional, Trypanosoma brucei brucei strain 927/4 GUTat10.1. The source holds these as a separate data set.
The target of assay [16] is T5, Estrogen receptor (Homo sapiens, UniProt P03372).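 Further: potency for inhibiting coactivator peptide recruitment to the receptor.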
T5 sequence (P03372 whole entry): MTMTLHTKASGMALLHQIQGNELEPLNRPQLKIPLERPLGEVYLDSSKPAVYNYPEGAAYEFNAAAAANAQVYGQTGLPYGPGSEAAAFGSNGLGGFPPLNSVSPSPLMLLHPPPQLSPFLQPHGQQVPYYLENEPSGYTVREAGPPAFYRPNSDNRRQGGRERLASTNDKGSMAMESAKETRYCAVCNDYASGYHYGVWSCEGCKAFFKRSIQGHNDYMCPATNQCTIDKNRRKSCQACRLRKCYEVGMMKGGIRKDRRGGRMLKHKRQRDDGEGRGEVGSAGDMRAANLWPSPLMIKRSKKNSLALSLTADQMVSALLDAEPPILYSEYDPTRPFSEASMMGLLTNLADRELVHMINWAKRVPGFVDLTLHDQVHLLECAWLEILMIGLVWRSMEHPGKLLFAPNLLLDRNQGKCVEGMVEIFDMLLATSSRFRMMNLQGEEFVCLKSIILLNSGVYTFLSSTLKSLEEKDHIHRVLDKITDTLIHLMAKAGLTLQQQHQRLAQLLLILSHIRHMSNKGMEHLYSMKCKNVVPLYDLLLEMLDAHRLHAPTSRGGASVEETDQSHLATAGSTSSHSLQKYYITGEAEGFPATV

Assay [17] deals with Long-chain-fatty-acid--AMP ligase FadD28 (Mycobacterium tuberculosis, UniProt P9WQ59). Kind of assay: Fluorescence polarization aasay to screen for inhibitors that compete for the binding of FadD28 to a bisubstrate Measured in Biochemical System Using Plate Reader - 2147-01_Inhibitor_Dose_CherryPick_Activity. It counts as functional, Mycobacterium tuberculosis H37Rv. A general note: Fluorescence polarisation rises when a labelled molecule tumbles more slowly, as on binding a larger partner.
Chain of Long-chain-fatty-acid--AMP ligase FadD28 (P9WQ59 whole entry): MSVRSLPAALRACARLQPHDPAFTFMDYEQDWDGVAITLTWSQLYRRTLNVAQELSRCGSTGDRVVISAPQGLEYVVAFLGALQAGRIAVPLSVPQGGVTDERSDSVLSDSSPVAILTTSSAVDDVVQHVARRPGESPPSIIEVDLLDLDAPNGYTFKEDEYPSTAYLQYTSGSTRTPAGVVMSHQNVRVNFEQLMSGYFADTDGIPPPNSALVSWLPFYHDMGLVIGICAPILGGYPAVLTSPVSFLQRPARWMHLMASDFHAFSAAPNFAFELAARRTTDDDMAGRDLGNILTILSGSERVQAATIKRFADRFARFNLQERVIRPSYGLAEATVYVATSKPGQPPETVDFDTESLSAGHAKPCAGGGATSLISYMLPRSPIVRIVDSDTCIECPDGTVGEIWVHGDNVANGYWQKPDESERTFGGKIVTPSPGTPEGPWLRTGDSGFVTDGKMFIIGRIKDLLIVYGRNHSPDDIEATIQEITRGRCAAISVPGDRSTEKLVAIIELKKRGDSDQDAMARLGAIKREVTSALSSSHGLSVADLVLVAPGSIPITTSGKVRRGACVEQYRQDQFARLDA

Assay [18] is described as follows: cytotoxicity in HEK293 background cells – cell-based, dry powder, set 2, counter-screen for EBV LMP1 inhibitor project, dose response (AID 624374). Format: functional.
Assay [19] is described as follows: NIH3T3 cell viability loss – ATP luminescence, mouse fibroblasts, counter-screen, dose response (AID 2010).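 Further: cells exposed to compound for about 90 hours before reading.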 It counts as functional, cell-based.
The target of assay [20] is T6, Rac GTPase-activating protein 1 (Homo sapiens, UniProt Q9H0H5).
T6 sequence (Q9H0H5 whole entry): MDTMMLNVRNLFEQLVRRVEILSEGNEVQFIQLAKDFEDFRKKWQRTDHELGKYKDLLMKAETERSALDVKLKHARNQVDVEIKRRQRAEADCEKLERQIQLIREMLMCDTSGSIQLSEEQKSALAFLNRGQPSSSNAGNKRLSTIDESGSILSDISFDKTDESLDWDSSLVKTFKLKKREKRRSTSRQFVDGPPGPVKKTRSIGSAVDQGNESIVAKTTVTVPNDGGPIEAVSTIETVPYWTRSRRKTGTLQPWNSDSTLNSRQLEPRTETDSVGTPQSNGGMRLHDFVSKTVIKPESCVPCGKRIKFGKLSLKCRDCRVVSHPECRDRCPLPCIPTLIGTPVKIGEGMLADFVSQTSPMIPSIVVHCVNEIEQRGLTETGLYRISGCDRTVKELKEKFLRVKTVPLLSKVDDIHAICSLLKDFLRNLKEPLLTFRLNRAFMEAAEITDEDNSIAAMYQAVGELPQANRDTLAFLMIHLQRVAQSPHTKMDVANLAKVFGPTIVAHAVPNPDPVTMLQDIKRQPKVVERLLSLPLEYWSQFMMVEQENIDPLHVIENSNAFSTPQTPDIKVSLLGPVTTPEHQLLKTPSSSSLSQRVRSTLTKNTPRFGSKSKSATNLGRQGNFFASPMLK
The assay can be described thus: blockers of MgcRacGAP-driven Rac1 GTP hydrolysis – biochemical, ADP Hunter fluorescence, primary and confirmatory, confirmation (AID 624330). It counts as functional.

Assay [21] can be described thus: viability loss in HeLa cells – cytotoxicity control for MgcRacGAP inhibitor project, dose response (AID 624300). It counts as functional.
Assay [22] concerns the target T7, DNA repair protein RAD52 homolog (Homo sapiens, UniProt P43351).
T7 sequence (P43351 whole entry): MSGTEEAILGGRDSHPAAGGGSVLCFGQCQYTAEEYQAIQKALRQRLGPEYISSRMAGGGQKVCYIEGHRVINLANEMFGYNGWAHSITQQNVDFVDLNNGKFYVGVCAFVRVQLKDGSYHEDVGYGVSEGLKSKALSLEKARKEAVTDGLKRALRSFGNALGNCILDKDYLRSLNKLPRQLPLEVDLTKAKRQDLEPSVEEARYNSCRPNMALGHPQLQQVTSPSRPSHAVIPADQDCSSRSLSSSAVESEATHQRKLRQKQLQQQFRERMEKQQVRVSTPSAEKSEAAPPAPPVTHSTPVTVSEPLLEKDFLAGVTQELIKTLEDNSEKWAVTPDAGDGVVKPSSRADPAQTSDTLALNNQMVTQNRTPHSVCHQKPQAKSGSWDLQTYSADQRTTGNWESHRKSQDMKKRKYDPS
It counts as functional, biochemical.

Structures are written as SMILES. Calls of active or inactive are those of the source. Some results are limits rather than exact numbers.
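Wherever IC50 Mean is given: confirmatory dose-response retesting of NadD inhibitor hits first found in an ultra-high-throughput screen.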

T1 sequence (P65502 whole entry): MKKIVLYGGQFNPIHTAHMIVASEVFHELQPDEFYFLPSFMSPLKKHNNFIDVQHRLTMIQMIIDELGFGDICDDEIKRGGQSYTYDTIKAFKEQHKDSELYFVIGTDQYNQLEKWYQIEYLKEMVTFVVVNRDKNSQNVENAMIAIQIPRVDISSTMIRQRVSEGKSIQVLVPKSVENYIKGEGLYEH
Chain of SWI/SNF-related matrix-associated actin-dependent regulator of chromatin subfamily A member 2 (P51531 whole entry): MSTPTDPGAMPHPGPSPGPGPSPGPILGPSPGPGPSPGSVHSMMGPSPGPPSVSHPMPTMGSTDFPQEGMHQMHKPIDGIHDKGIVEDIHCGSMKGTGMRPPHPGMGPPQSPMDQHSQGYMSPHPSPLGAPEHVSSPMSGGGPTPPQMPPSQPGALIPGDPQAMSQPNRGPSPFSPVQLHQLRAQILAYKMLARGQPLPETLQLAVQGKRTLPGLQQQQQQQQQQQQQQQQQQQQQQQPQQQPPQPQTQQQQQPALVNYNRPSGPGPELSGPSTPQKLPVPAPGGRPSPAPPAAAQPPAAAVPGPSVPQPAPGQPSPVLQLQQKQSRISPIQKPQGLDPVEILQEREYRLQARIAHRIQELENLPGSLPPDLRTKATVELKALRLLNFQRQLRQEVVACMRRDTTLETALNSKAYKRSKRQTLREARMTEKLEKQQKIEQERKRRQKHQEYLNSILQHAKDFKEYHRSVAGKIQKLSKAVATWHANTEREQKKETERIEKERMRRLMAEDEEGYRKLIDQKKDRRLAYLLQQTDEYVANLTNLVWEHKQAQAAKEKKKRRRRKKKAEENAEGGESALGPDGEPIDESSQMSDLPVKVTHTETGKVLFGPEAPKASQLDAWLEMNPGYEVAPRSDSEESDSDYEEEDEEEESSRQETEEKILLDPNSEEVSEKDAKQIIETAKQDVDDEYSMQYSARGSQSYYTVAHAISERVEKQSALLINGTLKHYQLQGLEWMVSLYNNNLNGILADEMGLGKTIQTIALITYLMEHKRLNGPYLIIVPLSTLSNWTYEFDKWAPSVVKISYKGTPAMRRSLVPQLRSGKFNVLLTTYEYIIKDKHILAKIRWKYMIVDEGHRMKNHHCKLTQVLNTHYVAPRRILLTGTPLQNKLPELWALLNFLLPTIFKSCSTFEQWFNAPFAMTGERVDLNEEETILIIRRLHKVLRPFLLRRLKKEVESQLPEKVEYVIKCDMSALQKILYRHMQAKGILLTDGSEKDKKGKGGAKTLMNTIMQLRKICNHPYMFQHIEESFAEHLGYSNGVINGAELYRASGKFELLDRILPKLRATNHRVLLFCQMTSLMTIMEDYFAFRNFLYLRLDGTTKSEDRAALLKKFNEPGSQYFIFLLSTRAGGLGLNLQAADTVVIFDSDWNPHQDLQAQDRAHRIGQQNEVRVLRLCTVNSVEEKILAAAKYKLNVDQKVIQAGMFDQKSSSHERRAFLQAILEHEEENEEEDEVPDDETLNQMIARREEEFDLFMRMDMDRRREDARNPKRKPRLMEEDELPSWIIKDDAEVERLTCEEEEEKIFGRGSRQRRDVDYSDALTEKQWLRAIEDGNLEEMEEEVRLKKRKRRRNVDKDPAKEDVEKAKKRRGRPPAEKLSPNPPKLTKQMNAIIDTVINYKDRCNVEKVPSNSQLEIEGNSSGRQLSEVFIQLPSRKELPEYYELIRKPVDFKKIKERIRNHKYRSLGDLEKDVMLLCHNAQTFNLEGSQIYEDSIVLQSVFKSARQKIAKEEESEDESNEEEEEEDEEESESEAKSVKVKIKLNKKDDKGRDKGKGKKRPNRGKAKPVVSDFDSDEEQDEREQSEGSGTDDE

Regarding `Cc1ccc(-n2nc3c(c2NC(=O)/C=C\c2ccc4c(c2)OCO4)CSC3)cc1`, the IC50 is 20.4 µM (active) in assay [1] and 6.06 µM (active) in assay [2].
For `CCN(CC)CCn1nc2c3c(cccc3c1=O)-c1ccccc1-2`, the EC50 (in general, the midpoint of the concentration-response curve) is 41 µM (active) in assay [3]; > 91.2 µM (inactive) in assay [6]; > 350 µM (not active) in assay [7]; > 260 µM (inactive) in assay [9]; 1.46 µM (active) in assay [10]; > 91.2 µM (inactive) in assay [11]. In addition, the AC50 (as a rule, the concentration at which the activity in the assay is half-maximal) in assay [4] is 2.4 µM (active); in assay [5], 5.92 µM (active). In [8], the IC50 is > 67.5 µM (inactive).
As to `O=C(NCc1nc2ccccc2[nH]1)C1=C[C@H](c2csc3ccccc23)C[C@H](OCc2ccc(CO)cc2)O1`, the CC50 (commonly the concentration giving 50% cytotoxicity) in assay [12] was 41.1 µM (active). Moreover, the IC50 is 47.7 µM (inactive) in assay [13], 3.54 µM (active) in assay [14] and 1.58 µM (active) in assay [15].
Regarding `CCc1cccc2c(C(=O)Cn3nnc(-c4ccc(OC)c(OC)c4)n3)c[nH]c12`, in [16], the IC50 was 10.3 µM (active). Further, in assay [17], the AC50 is 40.8 µM (active).
As for `COC(=O)[C@H](CC(C)C)N1Cc2cc(OC)cc(OC)c2-c2ccccc2S1(=O)=O`, the IC50 in assay [1] is 55.6 µM (active); in assay [2] it was 23.5 µM (active).
Regarding `Cc1noc(C)c1S(=O)(=O)Nc1ccc2c(c1)C(=O)N([C@H](C)CO)C[C@H](C)[C@H](CN(C)Cc1ccc(C(F)(F)F)cc1)OCCCC[C@H](C)O2`, in assay [18], the AbsAC35 was 76.4 µM.
`COc1ccccc1CNC(=O)C[C@H]1C[C@@H]2c3cc(NC(=O)CN(C)C)ccc3O[C@@H]2[C@@H](CO)O1` yielded an AbsAC35 in [18] of 106.52 µM.
As to `COc1ccc(/C=N/Nc2cc(C)nc3c(C)cccc23)cc1`, the 50% effective concentration (EC50) was > 60 µM (not active) in assay [19], > 91.2 µM (inactive) in [6], 1.14 µM (active) in assay [10] and > 91.2 µM (inactive) in assay [11]. In addition, the IC50 in assay [20] was 68.9 µM (active). Also, in [21], the cytotoxic concentration (CC50) was 31.6 µM (active). Moreover, the AC50 in assay [22] is 2.28 µM (active).
